# Reference: patent US7803801B2, “Aminopyridine compounds having Syk inhibitory activity” (Japan Tobacco, Inc., priority 2005, dated 2010)
# Where a name gives a salt, the structure may show the parent alone. Read-outs that look alike come from different tables or passages of the source.
# How the values were obtained:
# [1] = target: GST-Syk Full Protein (human) (Homo sapiens, UniProt P43405); assay: Syk kinase inhibition test (HTRF method); format: biochemical
# Outline: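 Human GST-Syk full-length (6.4 nM) phosphorylated biotin-EDPDYEWPSA-NH2 (250 nM) with 100 μM ATP in HEPES pH 7.0/MgCl2 buffer, 2% DMSO, 30 min at room temperature. EDTA stop, then HTRF detection (streptavidin-XL665, Eu anti-phosphotyrosine) after 1 h; 665/620 ratio read.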
# [2] = tested on: cultured human mast cells; assay: Degranulation inhibition test using cultured human mast cells (IgE cross-linking, β-Hexosaminidase release); format: cell-based; settings: Mast cell, cultured human mast cells, read-out: human degranulation ave. IC50
# Outline: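 CD34+ cord-blood cells cultured ≥8 weeks with SCF/IL-6/IL-3; FcεRI primed 5 days with rhIL-4 (1 ng/mL) and hIgE (0.5 μg/mL). Compound (0.1% DMSO) preincubated 10 min at 37 °C, then anti-IgE (final 10 μg/mL) 30 min; released β-hexosaminidase read at 405 nm versus total lysate, IC50 (M).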
# [3] = Tables 1-x, compounds A, read-out: sykHTRF ave IC50
# [4] = HTRF, 100 μM ATP, 30 min room temperature, average, read-out: sykHTRF ave IC50
# [5] = anti-hIgE stimulation, β-Hexosaminidase index, average
# [6] = Tables 2-x, thiophene compounds B, read-out: sykHTRK ave IC50
# [7] = Tables 2-x, thiophene compounds B
SMILES,"IC50 [1, 3]","IC50 ([2]; Tables 1-x, compounds A)","IC50 [1, 4]","IC50 [2, 5]",other results
"CC1(c2ccnc(Nc3cccc(-c4cnc(N5CCC[C@@H](C(N)=O)C5)s4)n3)c2)OCCO1 [Compound A-565, (R)-1-(5-{6-[4-(2-methyl-[1,3]dioxolan-2-yl)pyridin-2-ylamino]pyridin-2-yl}thiazol-2-yl)piperidine-3-carboxamide]",< 100 nM,100 to 1000 nM,–,–,–
Cc1ccnc(Nc2cccc(-c3cnc([C@H]4CC[C@H](C(=O)N5CCC(N(C)C)C5)CC4)s3)n2)c1 (stereo partly shown) [Compound A-287],–,–,100 to 1000 nM,100 to 1000 nM,–
"Cc1ccnc(Nc2cccc(-c3cnc(N(C)C(C)(C)c4ccc(C(=O)O)cc4)s3)n2)c1 [Compound A-616, 4-[1-methyl-1-(N-methyl-N-{5-[6-(4-methylpyridin-2-ylamino)pyridin-2-yl]thiazol-2-yl}amino)ethyl]benzoic acid dihydrochloride]",< 100 nM,100 to 1000 nM,–,–,–
Cc1ccnc(Nc2cccc(-c3cnc(N4CCN(C(=O)C5CCC(O)CC5)CC4)s3)n2)c1 (stereo not shown) [Compound A-413],100 to 1000 nM,100 to 1000 nM,–,–,–
Cc1ccnc(Nc2cccc(-c3cnc([C@H]4CC[C@H](C(=O)N5CCC(CO)CC5)CC4)s3)n2)c1 [Compound A-242],–,–,100 to 1000 nM,100 to 1000 nM,–
Cc1ccnc(Nc2cccc(-c3cnc(CCc4ccc(NS(C)(=O)=O)cc4)s3)n2)c1 [Compound A-221],–,–,100 to 1000 nM,> 1000 nM,–
Cc1ccnc(Nc2cccc(-c3cnc(N4CCSCC4)s3)n2)c1 [Compound A-418],100 to 1000 nM,100 to 1000 nM,–,–,–
Cc1ccnc(Nc2cccc(-c3cnc(C4CCN(C(=O)c5ccncc5)CC4)s3)n2)c1 [Compound A-306],–,–,100 to 1000 nM,100 to 1000 nM,–
"Cc1ccnc(Nc2cccc(-c3cnc([C@H]4CC[C@H](C(=O)N5CC[C@H](O)[C@H](O)C5)CC4)s3)n2)c1 [Compound A-239, ((3R,4S)-3,4-dihydroxypiperidin-1-yl)-(trans-4-{5-[6-(4-methylpyridin-2-ylamino)pyridin-2-yl]thiazol-2-yl}cyclohexyl)methanone]",–,–,< 100 nM,100 to 1000 nM,–
"COc1ccnc(Nc2cccc(-c3cnc(N4CC[C@@H](O)C4)s3)n2)c1 [Compound A-538, (R)-1-{5-[6-(4-methoxypyridin-2-ylamino)pyridin-2-yl]thiazol-2-yl}pyrrolidin-3-ol]",< 100 nM,100 to 1000 nM,–,–,–
"C[C@H](N)c1ncc(-c2cccc(Nc3cc(-c4ccncc4)ccn3)n2)s1 [Compound A-75, N-{6-[2-((S)-1-aminoethyl)thiazol-5-yl]pyridin-2-yl}-N-([4,4′]bipyridinyl-2-yl)amine]",–,–,< 100 nM,100 to 1000 nM,–
"CNC(=O)CN(C)C(=O)C1CCN(c2ncc(-c3cccc(Nc4cc(C)ccn4)n3)s2)CC1 [Compound A-469, N-methyl-N-methylcarbamoylmethyl-1-{5-[6-(4-methylpyridin-2-ylamino)pyridin-2-yl]thiazol-2-yl}piperidine-4-carboxamide]",< 100 nM,100 to 1000 nM,–,–,–
Cc1ccnc(Nc2cccc(-c3cnc(N4CCN(C=O)CC4)s3)n2)c1 [Compound A-410],100 to 1000 nM,< 100 nM,–,–,–
Cc1ccnc(Nc2cccc(-c3cnc(C4CCCNC4)s3)n2)c1 (stereo not shown) [Compound A-390],100 to 1000 nM,100 to 1000 nM,–,–,–
CC(=NO)c1sc(-c2cccc(Nc3cc(C)ccn3)n2)cc1C [Compound B-42],–,–,–,–,"IC50 [1, 6]: 100 to 1000 nM; IC50 [2, 7]: > 1000 nM"
"Cc1ccnc(Nc2cccc(-c3cnc(N(C)C4CCOCC4)s3)n2)c1 [Compound A-470, N-methyl-N-{5-[6-(4-methylpyridin-2-ylamino)pyridin-2-yl]thiazol-2-yl}-N-tetrahydropyran-4-ylamine]",< 100 nM,100 to 1000 nM,–,–,–
Cc1ccnc(Nc2cccc(-c3cnc([C@H]4CC[C@H](C(=O)N5CCOCC5)CC4)s3)n2)c1 [Compound A-275],–,–,100 to 1000 nM,100 to 1000 nM,–
"Cc1ccnc(Nc2cccc(-c3cnc([C@H]4CC[C@H](C(=O)N5C[C@@H](O)[C@@H](O)C5)CC4)s3)n2)c1 [Compound A-174, ((3R,4S)-3,4-dihydroxypyrrolidin-1-yl)-(trans-4-{5-[6-(4-methylpyridin-2-ylamino)pyridin-2-yl]thiazol-2-yl}cyclohexyl)methanone]",–,–,< 100 nM,100 to 1000 nM,–
OCc1ccnc(Nc2cccc(-c3cccs3)n2)c1 [Compound B-94],–,–,–,–,"IC50 [1, 6]: 100 to 1000 nM; IC50 [2, 7]: 100 to 1000 nM"

# More lines, main results first:
"IC50 [1, 3]","IC50 ([2]; Tables 1-x, compounds A)","IC50 [1, 4]","IC50 [2, 5]",SMILES,other results
< 100 nM,> 1000 nM,–,–,"Cc1ccnc(Nc2cccc(-c3cnc(N(C)Cc4cccc(C(=O)O)c4)s3)n2)c1 [Compound A-586, 3-[(N-methyl-N-{5-[6-(4-methylpyridin-2-ylamino)pyridin-2-yl]thiazol-2-yl}amino)methyl]benzoic acid dihydrochloride]",–
–,–,100 to 1000 nM,100 to 1000 nM,Cc1ccnc(Nc2cccc(-c3cnc([C@H](C)NC(=O)Cc4ccc(O)cc4)s3)n2)c1 [Compound A-352],–
–,–,< 100 nM,100 to 1000 nM,"Cc1ccnc(Nc2cccc(-c3cnc(CCc4ccc(NC(=O)CO)cc4)s3)n2)c1 [Compound A-237, 2-hydroxy-N-[4-(2-{5-[6-(4-methylpyridin-2-ylamino)pyridin-2-yl]thiazol-2-yl}ethyl)phenyl]acetamide]",–
–,–,< 100 nM,100 to 1000 nM,"Cc1ccnc(Nc2cccc(-c3cnc([C@H](C)NC(=O)CO)s3)n2)c1 [Compound A-147, 2-hydroxy-N—((S)-1-{5-[6-(4-methylpyridin-2-ylamino)pyridin-2-yl]thiazol-2-yl}ethyl)acetamide]",–
< 100 nM,> 1000 nM,–,–,"Cc1ccnc(Nc2cccc(-c3cnc(N(C)CC(=O)NCCC(=O)O)s3)n2)c1 [Compound A-570, 3-[2-(N-methyl-N-{5-[6-(4-methylpyridin-2-ylamino)pyridin-2-yl]thiazol-2-yl}amino)acetylamino]propionic acid dihydrochloride]",–
–,–,< 100 nM,100 to 1000 nM,"Cc1ccnc(Nc2cccc(-c3cnc(C(O)Cc4ccc(O)cc4)s3)n2)c1 (stereo not shown) [Compound A-362, 4-(2-hydroxy-2-{5-[6-(4-methylpyridin-2-ylamino)pyridin-2-yl]thiazol-2-yl}ethyl)phenol]",–
100 to 1000 nM,> 1000 nM,–,–,Cc1ccnc(Nc2cccc(-c3cnc(CNC(=O)c4cc(C)on4)s3)n2)c1 [Compound A-395],–
100 to 1000 nM,> 1000 nM,–,–,Cc1ccnc(Nc2cccc(-c3cnc(CNC(=O)c4c[nH]cn4)s3)n2)c1 [Compound A-396],–
< 100 nM,100 to 1000 nM,–,–,"CNC(=O)N1CCC(N(C)c2ncc(-c3cccc(Nc4cc(C)ccn4)n3)s2)CC1 [Compound A-460, N-methyl-4-(N′-methyl-N′-{5-[6-(4-methylpyridin-2-ylamino)pyridin-2-yl]thiazol-2-yl}amino)piperidine-1-carboxamide]",–
< 100 nM,100 to 1000 nM,–,–,"Cc1ccnc(Nc2cccc(-c3cnc(N4CCCC(C(=O)NCCO)C4)s3)n2)c1 (stereo not shown) [Compound A-478, N-(2-hydroxyethyl)-1-{5-[6-(4-methylpyridin-2-ylamino)pyridin-2-yl]thiazol-2-yl}piperidine-3-carboxamide]",–
–,–,> 1000 nM,> 1000 nM,CC(=O)N[C@@H](C)c1nc(CO)c(-c2cccc(Nc3cc(C)ccn3)n2)s1 [Compound A-108],–
–,–,< 100 nM,100 to 1000 nM,"CCC(=O)Nc1nc(C)c(-c2cccc(Nc3cc(C)ccn3)n2)s1 [Compound A-19, N-{4-methyl-5-[6-(4-methylpyridin-2-ylamino)pyridin-2-yl]thiazol-2-yl}propionamide]",–
–,–,100 to 1000 nM,100 to 1000 nM,Cc1ccnc(Nc2cccc(-c3cnc(CN4CCC(NC(=O)CO)CC4)s3)n2)c1 [Compound A-247],–
–,–,100 to 1000 nM,100 to 1000 nM,Cc1ccnc(Nc2cccc(-c3cnc([C@H](C)NS(C)(=O)=O)s3)n2)c1 [Compound A-58],–
100 to 1000 nM,100 to 1000 nM,–,–,Cc1ccnc(Nc2cccc(-c3cnc(CN4CCC[C@H]4CO)s3)n2)c1 [Compound A-379],–
–,–,100 to 1000 nM,100 to 1000 nM,Cc1ccnc(Nc2cccc(-c3cnc([C@H](C)NC(=O)C4CC4)s3)n2)c1 [Compound A-141],–
–,–,100 to 1000 nM,100 to 1000 nM,CNC(=O)N1CCC(c2ncc(-c3cccc(Nc4cc(C)ccn4)n3)s2)CC1 [Compound A-359],–
100 to 1000 nM,100 to 1000 nM,–,–,Cc1ccnc(Nc2cccc(-c3cnc(CN4C[C@@H](O)[C@@H](O)C4)s3)n2)c1 [Compound A-381],–
–,–,< 100 nM,< 100 nM,"C[C@H](O)c1ncc(-c2cccc(Nc3cc(OCCO)ccn3)n2)s1 [Compound A-344, (S)-1-(5-{6-[4-(2-hydroxyethoxy)pyridin-2-ylamino]pyridin-2-yl}thiazol-2-yl)ethanol]",–
–,–,100 to 1000 nM,100 to 1000 nM,Cc1ccnc(Nc2cccc(-c3cnc(C4CCN(C(=O)N(C)C)CC4)s3)n2)c1 [Compound A-371],–
–,–,100 to 1000 nM,100 to 1000 nM,COC(=O)N[C@@H](C)c1ncc(-c2cccc(Nc3cc(C)ccn3)n2)s1 [Compound A-57],–
–,–,< 100 nM,100 to 1000 nM,"Cc1ccnc(Nc2cccc(-c3cnc(CC4CCC(O)CC4)s3)n2)c1 (stereo not shown) [Compound A-341, 4-{5-[6-(4-methylpyridin-2-ylamino)pyridin-2-yl]thiazol-2-ylmethyl}cyclohexanol]",–
